24 molecules from patent publication US11046686B2, “Thiadiazole IRAK4 compounds” (Gilead Sciences, Inc., priority 2018, dated 2021) can be followed below.

Like-named read-outs stand apart in the source and are kept apart here.

For one assay, the system named is TNFα. Put plainly: IRAK4 Monocyte TNFα Cell Based Assay. More on the design: species or system human. The conditions noted are these: Homo sapiens, Monocyte, human monocytes. The procedure, abridged:
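TNFα release quantified by HTRF (cryptate/XL665 antibody pair, overnight at RT) after 1 h compound pre-incubation (0.1% DMSO) and 4 h LPS challenge at 50 pg/ml, 37 °C, 5,000 monocytes per well. Signal ratio normalised between unstimulated (0%) and stimulated (100%) controls.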

Another assay has as its target IRAK4 enzyme (Homo sapiens (Human), UniProt Q9NWZ3). Put plainly: IRAK4 Biochemical Assay (TR-FRET, STK1 KinEASE). Summed up:
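TR-FRET endpoint (KinEASE STK1): phosphopeptide detected with cryptate antibody and tracer after EDTA quench, ratio 665/615 nm, normalized to no-inhibitor wells as % inhibition. Reaction: 0.75 nM IRAK4, […] peptide, 500 μM ATP, pH 7.0 HEPES, 120 min room temperature, after 15 min compound preincubation with enzyme.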

Setting [1] is: LPS stimulated, compounds 1-32, read-out: EC50 TNF.
[2] abbreviates: compounds 1-32, read-out: IC50 HTRF.
Setting [3] is: second part of Table 2, compounds 33-343, unit inferred, read-out: EC50 MONO TNF HTRF.

IRAK4 enzyme, sequence (Q9NWZ3 whole entry): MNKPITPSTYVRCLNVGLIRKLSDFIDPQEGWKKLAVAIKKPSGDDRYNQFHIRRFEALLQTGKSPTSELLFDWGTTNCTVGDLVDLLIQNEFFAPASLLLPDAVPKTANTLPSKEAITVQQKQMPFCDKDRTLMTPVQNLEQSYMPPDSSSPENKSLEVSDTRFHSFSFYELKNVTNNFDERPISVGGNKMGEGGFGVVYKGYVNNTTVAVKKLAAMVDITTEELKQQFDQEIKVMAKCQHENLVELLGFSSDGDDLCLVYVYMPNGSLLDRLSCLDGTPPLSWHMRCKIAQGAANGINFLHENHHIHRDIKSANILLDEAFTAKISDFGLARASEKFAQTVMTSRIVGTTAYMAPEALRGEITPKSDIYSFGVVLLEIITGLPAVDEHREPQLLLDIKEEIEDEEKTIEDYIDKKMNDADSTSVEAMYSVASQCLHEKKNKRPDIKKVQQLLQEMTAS

`CC(=O)NC1CCN(c2nnc(-c3cnc(-c4ccc5cc(C#N)cnn45)cc3NC(C)C)s2)CC1` [Example 6, N-(1-(5-(6-(3-cyanopyrrolo[1,2-b]pyridazin-7-yl)-4-(isopropylamino)pyridin-3-yl)-1,3,4-thiadiazol-2-yl)piperidin-4-yl)acetamide]: in the assay on TNFα (setting [1]), the EC50 was 19 nM. At IRAK4 enzyme (setting [2]), the IC50 is less than 1 nM.

With `CC(C)Nc1cc(-c2ccc3cc(C#N)cnn23)ncc1-c1nnc(-c2ccc(N)cc2)s1` [Example 7, 7-(5-(5-(4-aminophenyl)-1,3,4-thiadiazol-2-yl)-4-(isopropylamino)pyridin-2-yl)pyrrolo[1,2-b]pyridazine-3-carbonitrile], in the assay on TNFα (setting [1]), the EC50 is more than 10000 nM. The IC50 on IRAK4 enzyme (setting [2]) amounted to 9 nM.

As for `CC(=O)N1CCN(C(=O)c2nnc(-c3cnc(-c4ccc5cc(C#N)cnn45)cc3NC(C)C)s2)CC1` [Example 10, 7-(5-(5-(4-acetylpiperazine-1-carbonyl)-1,3,4-thiadiazol-2-yl)-4-(isopropylamino)pyridin-2-yl)pyrrolo[1,2-b]pyridazine-3-carbonitrile], the half-maximal effective concentration (EC50) in the assay with TNFα (setting [1]) was determined as 157 nM. On IRAK4 enzyme (setting [2]), the IC50 was less than 1 nM.

For the molecule `CC(C)Nc1cc(-c2ccc3cc(C#N)cnn23)ncc1-c1nnc(C(=O)NCCCN2CCCCC2)s1` [Example 11, 5-(6-(3-cyanopyrrolo[1,2-b]pyridazin-7-yl)-4-(isopropylamino)pyridin-3-yl)-N-(3-(piperidin-1-yl)propyl)-1,3,4-thiadiazole-2-carboxamide], the half-maximal effective concentration (EC50) in the assay with TNFα (setting [1]) worked out at 1170 nM. The IC50 at IRAK4 enzyme (setting [2]) is less than 1 nM.

As for `CC(=O)N[C@H]1CCN(C(=O)c2nnc(-c3cnc(-c4ccc5cc(C#N)cnn45)cc3NC(C)C)s2)C1` [Example 12, (S)-N-(1-(5-(6-(3-cyanopyrrolo[1,2-b]pyridazin-7-yl)-4-(isopropylamino)pyridin-3-yl)-1,3,4-thiadiazole-2-carbonyl)pyrrolidin-3-yl)acetamide], in the assay with TNFα (setting [1]), the EC50 worked out at 9 nM. At IRAK4 enzyme (setting [2]), the IC50 was less than 1 nM.

Consider `CC(=O)N[C@@H]1CCN(C(=O)c2nnc(-c3cnc(-c4ccc5cc(C#N)cnn45)cc3NC(C)C)s2)C1` [Example 13, (R)-N-(1-(5-(6-(3-cyanopyrrolo[1,2-b]pyridazin-7-yl)-4-(isopropylamino)pyridin-3-yl)-1,3,4-thiadiazole-2-carbonyl)pyrrolidin-3-yl)acetamide], for which, in the assay on TNFα (setting [1]), the EC50 stood at 23 nM. The IC50 at IRAK4 enzyme (setting [2]) was less than 1 nM.

Consider `CC(C)Nc1cc(-c2ccc3cc(C#N)cnn23)ncc1-c1nnc(C(=O)NC[C@@H](F)C(C)(C)O)s1` [Example 14, (R)-5-(6-(3-cyanopyrrolo[1,2-b]pyridazin-7-yl)-4-(isopropylamino)pyridin-3-yl)-N-(2-fluoro-3-hydroxy-3-methylbutyl)-1,3,4-thiadiazole-2-carboxamide], for which the EC50 with TNFα (setting [1]) is 79 nM. The IC50 at IRAK4 enzyme (setting [2]) is less than 1 nM.

On to `CNC(=O)c1nnc(-c2cnc(-c3ccc4cc(C#N)cnn34)cc2NC(C)C)s1` [Example 15, 5-(6-(3-cyanopyrrolo[1,2-b]pyridazin-7-yl)-4-(isopropylamino)pyridin-3-yl)-N-methyl-1,3,4-thiadiazole-2-carboxamide], for which the EC50 in the assay with TNFα (setting [1]) amounted to 3390 nM. Besides, the IC50 at IRAK4 enzyme (setting [2]) is less than 1 nM.

As for `CC(C)Nc1cc(-c2ccc3cc(C#N)cnn23)ncc1-c1nnc(C(=O)N2CC[C@H](O)C2)s1` [Example 16, (S)-7-(5-(5-(3-hydroxypyrrolidine-1-carbonyl)-1,3,4-thiadiazol-2-yl)-4-(isopropylamino)pyridin-2-yl)pyrrolo[1,2-b]pyridazine-3-carbonitrile], the EC50 in the assay with TNFα (setting [1]) is 35 nM. At IRAK4 enzyme (setting [2]), the IC50 is less than 1 nM.

Regarding `CC(C)Nc1cc(-c2ccc3cc(C#N)cnn23)ncc1-c1nnc(C(=O)N2CC[C@@H](O)C2)s1` [Example 17, (R)-7-(5-(5-(3-hydroxypyrrolidine-1-carbonyl)-1,3,4-thiadiazol-2-yl)-4-(isopropylamino)pyridin-2-yl)pyrrolo[1,2-b]pyridazine-3-carbonitrile], the EC50 in the assay with TNFα (setting [1]) is 55 nM. In addition, the IC50 on IRAK4 enzyme (setting [2]) turned out to be 1 nM.

For `CC(C)Nc1cc(-c2ccc3cc(C#N)cnn23)ncc1-c1nnc(C(=O)N2CCOCC2)s1` [Example 18, 7-(4-(isopropylamino)-5-(5-(morpholine-4-carbonyl)-1,3,4-thiadiazol-2-yl)pyridin-2-yl)pyrrolo[1,2-b]pyridazine-3-carbonitrile], the EC50 in the assay on TNFα (setting [1]) is more than 10000 nM. Further, on IRAK4 enzyme (setting [2]), the IC50 amounted to 1000 nM.

As to `CC(=O)Nc1nnc(-c2cnc(-c3ccc4cc(C#N)cnn34)cc2NC(C)C)s1` [Example 19, N-(5-(6-(3-cyanopyrrolo[1,2-b]pyridazin-7-yl)-4-(isopropylamino)pyridin-3-yl)-1,3,4-thiadiazol-2-yl)acetamide], in the assay on TNFα (setting [1]), the half-maximal effective concentration (EC50) was determined as 5870 nM. At IRAK4 enzyme (setting [2]), the IC50 worked out at 1 nM.

For `CC(=O)N[C@H]1CC[C@H](c2nnc(-c3cnc(-c4ccc5cc(C#N)cnn45)cc3NCC#N)s2)CC1` [Example 20, N-((1r,4r)-4-(5-(4-((cyanomethyl)amino)-6-(3-cyanopyrrolo[1,2-b]pyridazin-7-yl)pyridin-3-yl)-1,3,4-thiadiazol-2-yl)cyclohexyl)acetamide], in the assay on TNFα (setting [1]), the EC50 is 6 nM. For the same molecule, the IC50 on IRAK4 enzyme (setting [2]) was less than 1 nM.

For the molecule `CC(=O)N[C@H]1CC[C@H](c2nnc(-c3cnc(-c4ccc5cc(C#N)cnn45)cc3NC3COC3)s2)CC1` [Example 21, N-((1r,4r)-4-(5-(6-(3-cyanopyrrolo[1,2-b]pyridazin-7-yl)-4-(oxetan-3-ylamino)pyridin-3-yl)-1,3,4-thiadiazol-2-yl)cyclohexyl)acetamide], the EC50 with TNFα (setting [1]) came to 10 nM. Also, the IC50 at IRAK4 enzyme (setting [2]) was less than 1 nM.

As to `CNc1cc(-c2ccc3cc(C#N)cnn23)ncc1-c1nnc([C@H]2CC[C@H](NC(C)=O)CC2)s1` [Example 22, N-((1r,4r)-4-(5-(6-(3-cyanopyrrolo[1,2-b]pyridazin-7-yl)-4-(methylamino)pyridin-3-yl)-1,3,4-thiadiazol-2-yl)cyclohexyl)acetamide], the EC50 in the assay on TNFα (setting [1]) is 25 nM. In addition, the IC50 on IRAK4 enzyme (setting [2]) is less than 1 nM.

`COC(=O)NC[C@H]1C[C@H](Nc2cc(-c3ccc4cc(C#N)cnn34)ncc2-c2nnc([C@H]3CC[C@H](NC(C)=O)CC3)s2)C1` [Example 23, methyl (((1R,3r)-3-((5-(5-((1r,4R)-4-acetamidocyclohexyl)-1,3,4-thiadiazol-2-yl)-2-(3-cyanopyrrolo[1,2-b]pyridazin-7-yl)pyridin-4-yl)amino)cyclobutyl)methyl)carbamate]: in the assay with TNFα (setting [1]), the EC50 turned out to be 6 nM. The IC50 on IRAK4 enzyme (setting [2]) is less than 1 nM.

Regarding `Cc1nnc(-c2cnc(-c3ccc4cc(C#N)cnn34)cc2NC(C)C)s1` [Example 25, 7-(4-(isopropylamino)-5-(5-methyl-1,3,4-thiadiazol-2-yl)pyridin-2-yl)pyrrolo[1,2-b]pyridazine-3-carbonitrile], the EC50 in the assay on TNFα (setting [1]) is 1460 nM. At IRAK4 enzyme (setting [2]), the IC50 was less than 1 nM.

With `CC(C)Nc1cc(-c2ccc3cc(C#N)cnn23)ncc1-c1nnc(CCN)s1` [Example 26, 7-(5-(5-(2-aminoethyl)-1,3,4-thiadiazol-2-yl)-4-(isopropylamino)pyridin-2-yl)pyrrolo[1,2-b]pyridazine-3-carbonitrile], the EC50 with TNFα (setting [1]) is 305 nM. Also, the IC50 on IRAK4 enzyme (setting [2]) was 1 nM.

As to `CC(C)Nc1cc(-c2ccc3cc(C#N)cnn23)ncc1-c1nnc(NC[C@@H](F)C(C)(C)O)s1` [Example 27, (R)-7-(5-(5-((2-fluoro-3-hydroxy-3-methylbutyl)amino)-1,3,4-thiadiazol-2-yl)-4-(isopropylamino)pyridin-2-yl)pyrrolo[1,2-b]pyridazine-3-carbonitrile], the EC50 with TNFα (setting [1]) amounted to 67 nM. For the same molecule, the IC50 on IRAK4 enzyme (setting [2]) came out at 1 nM.

Take `CC(C)Nc1cc(-c2ccc3cc(C#N)cnn23)ncc1-c1nnc(-n2cccc2)s1` [Example 28, 7-(5-(5-(1H-pyrrol-1-yl)-1,3,4-thiadiazol-2-yl)-4-(isopropylamino)pyridin-2-yl)pyrrolo[1,2-b]pyridazine-3-carbonitrile]: the EC50 in the assay with TNFα (setting [1]) was determined as 6340 nM. Moreover, the IC50 on IRAK4 enzyme (setting [2]) was 1.7 nM.

In the case of `CC(C)Nc1cc(-c2ccc3cc(C#N)cnn23)ncc1-c1nncs1` [Example 30, 7-(4-(isopropylamino)-5-(1,3,4-thiadiazol-2-yl)pyridin-2-yl)pyrrolo[1,2-b]pyridazine-3-carbonitrile], in the assay with TNFα (setting [1]), the EC50 worked out at 78 nM. The half-inhibitory concentration (IC50) at IRAK4 enzyme (setting [2]) was found to be 1 nM.

`CC(C)Nc1cc(-c2ccc3cc(C#N)cnn23)ncc1-c1nnc(CCC(C)(C)O)s1` [Example 31, 7-(5-(5-(3-hydroxy-3-methylbutyl)-1,3,4-thiadiazol-2-yl)-4-(isopropylamino)pyridin-2-yl)pyrrolo[1,2-b]pyridazine-3-carbonitrile]: the concentration giving a half-maximal response (EC50) in the assay on TNFα (setting [1]) came out at 5 nM. At IRAK4 enzyme (setting [2]), the IC50 is less than 1 nM.

Turning to `CC(=O)NC1CN(c2nnc(-c3cnc(-c4ccc5cc(C#N)cnn45)cc3NC(C)C)s2)C1` [Example 33, N-(1-(5-(6-(3-cyanopyrrolo[1,2-b]pyridazin-7-yl)-4-(isopropylamino)pyridin-3-yl)-1,3,4-thiadiazol-2-yl)azetidin-3-yl)acetamide], the EC50 in the assay with TNFα (setting [3]) was 3970 nM. At IRAK4 enzyme, this molecule yielded an IC50 of 0.49 nM.

On to `CC(C)Nc1cc(-c2ccc3cc(C#N)cnn23)ncc1-c1nnc(N2CCN3CCOC[C@@H]3C2)s1` [Example 35, (S)-7-(5-(5-(hexahydropyrazino[2,1-c][1,4]oxazin-8(1H)-yl)-1,3,4-thiadiazol-2-yl)-4-(isopropylamino)pyridin-2-yl)pyrrolo[1,2-b]pyridazine-3-carbonitrile], for which the EC50 in the assay with TNFα (setting [3]) was 78.2 nM. At IRAK4 enzyme, this molecule registered a half-inhibitory concentration (IC50) of 0.87 nM.
